Experimental data taken from US20190257816A1, “DIFFERENTIAL BH3 MITOCHONDRIAL PROFILING” (Eutropics Pharmaceuticals, Inc., priority 2013, published 2019).
Values joined by “and” are separate entries in the source; they are usually repeats but may differ in a detail not shown here. Equal values may be shown once. Where no end group is shown, it is not given here.

Tests used:
Mcl-1 1780 [1] = experiment: MTS viability assay, Mcl-1 1780; assay type: cell-based; settings: for IC50: Mcl1-1780, Mcl-1 1780, 48 hours
Method: (§1) The mitochondrial profiling assay was carried out in three steps: (1) cell preparation and counting, (2) cell permeabilization and peptide treatment, and (3) fluorescent readout (FIG. 1). Cells are suspended in Mitochondria loading Buffer with 0.005% digitonin, loaded with the cationic dye JC-1 (1 μM), and treated with 100 μM of one of the BH3 domain peptides: Bim, Bad, Noxa, and Puma. MOMP is followed by full mitochondrial membrane depolarization (ΔΨm), which is measured by treating the cells with the ionophore FCCP (p-trifluoromethoxy carbonyl cyanide phenyl hydrazone). Peptide (and FCCP) addition results in a decrease in membrane potential in suitably primed cells and is measured as a decrease in JC-1 fluorescence in a 384 well plate on a TecanGenios plate reader using an excitation of 535 nm and an emission of 590 nm.
(§2) Tables 3 and 4 show the percent priming of various cell lines, as determined by measuring the signal intensity of the JC-1 dye which is an indicator of mitochondrial depolarization. […] Viability was measured using an MTS assay. The IC50 is in μM.

DHL6 [2] = experiment: MTS viability assay, DHL6; assay type: cell-based; settings: DHL6, 48 hours
Method: as §1, §2

NCI-H929 [3] = experiment: MTS viability assay, NCI-H929; assay type: cell-based; settings: Homo sapiens; NCI-H929, 48 hours
Method: as §1, §2

Bcl-2 1863 = experiment: MTS viability assay, Bcl-2 1863; assay type: cell-based; settings: Bcl-2 primed cells (Bcl-2 1863)
DHL10 = experiment: MTS viability assay, DHL10; assay type: cell-based; settings: for IC50: DHL10 (Bax/Bak deficient), 48 hours
Method: as §1, §2

LPN3 [4] = experiment: MTS viability assay, LPN3; assay type: cell-based; settings: LPN3, 48 hours
Method: as §1, §2

multiple myeloma = experiment: Patient M-protein (M-spike) response to Velcade/Bortezomib treatment; assay type: in vivo, human; design: key to Δ M-Spike: % decrease in M-protein over treatment period; settings: for Δ M-Spike: Velcade/Bortezomib combination regimen
Description: To date, we have obtained Mitochondrial profiles from 14 multiple myeloma or plasma cell leukemia patients. Each of the samples tested came from patients treated with one of several different Velcade/Bortezomib combination regimens. The samples listed in Table 5 are viably frozen from a tissue bank or from fresh bone marrow delivered within a few hours of the biopsy. CD138 cells are purified from either source using two similar procedures that have been optimized for each respective tissue type. Profiles on frozen cells are performed immediately following purification. Profiles on fresh cells are performed immediately or on viably frozen CD138 positive cells. […] M-protein is an indication of myeloma activity and is widely used diagnostic marker of the severity of the disease. The patient M-protein response is converted to a percentage of the best response seen among the group of patients tested. The M-spike response is calculated as a percent decrease in M-protein over a given treatment period. […] The percent decrease is calculated with the following equation. The percent best response is used to normalize the data to a fixed scale where 100% is the best response and 0% is the worst response. It is calculated with the equation below. Cancer cells collected from a patient undergoing Velcade based treatment were mitochondrial profiled at three time points during the course of treatment (October 2010, January 2011, and May 2011). The profile was used to monitor the apoptotic predisposition of the CD-138 positive MM cells during treatment.

OPM2/Luciferase cells = experiment: Tumor burden by bioluminescence imaging in xenografted mice; assay type: in vivo; settings: OPM2/Luciferase xenograft in SCID mice, velcade 1 mpk IV 3×/week, compared with vehicle-only
Method: Mice were injected with 75 mg/kg D-luciferin, anesthetized, and imaged 10 minutes after substrate injection. Total body luminescence was determined using a standardized region of interest encompassing the entire mouse using the Living Images software package (Caliper Life Sciences).
OPM2/Luciferase cells were transferred to SCID mice and allowed to reach tumor burden. Xenografted mice were treated with EU-5148 (20 mpk IV, 3×/week), velcade for (1 mpk IV, 3×/week), or a combination of these treatments. […] The combination treatment of EU-5148 with Velcade results in 92% reduction in tumor cell burden over same time period.

BCL-2 = BCL-2 (Homo sapiens, UniProt P10415); experiment: BH3 domain binding affinities to BCL-2
Chain of BCL-2 (P10415 whole entry, the tested form may be a part): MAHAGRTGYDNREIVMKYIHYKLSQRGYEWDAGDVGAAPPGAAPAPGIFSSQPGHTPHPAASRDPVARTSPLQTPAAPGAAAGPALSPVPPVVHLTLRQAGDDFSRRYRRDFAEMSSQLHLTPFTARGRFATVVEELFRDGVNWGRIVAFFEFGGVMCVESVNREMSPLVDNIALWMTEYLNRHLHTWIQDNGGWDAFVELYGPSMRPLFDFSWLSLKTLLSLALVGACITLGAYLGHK

BCL-XL = BCL-XL (Homo sapiens, UniProt Q07817); experiment: BH3 domain binding affinities to BCL-XL
Chain of BCL-XL (Q07817 whole entry, the tested form may be a part): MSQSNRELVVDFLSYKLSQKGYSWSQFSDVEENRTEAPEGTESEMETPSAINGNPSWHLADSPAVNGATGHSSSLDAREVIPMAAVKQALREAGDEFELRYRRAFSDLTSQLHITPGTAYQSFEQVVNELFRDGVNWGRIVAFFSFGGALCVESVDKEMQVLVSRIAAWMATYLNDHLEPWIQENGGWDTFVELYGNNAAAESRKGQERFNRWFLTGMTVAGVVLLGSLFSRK

NCI-H929 [5] = experiment: Mitochondrial profiling assay (JC-1), NCI-H929; assay type: cell-based; settings: NCI-H929, percent priming, JC-1, 100 μM peptide
Method: as §1, §2

LPN3 [6] = experiment: Mitochondrial profiling assay (JC-1), LPN3; assay type: cell-based; settings: LPN3, percent priming, JC-1, 100 μM peptide
Method: as §1, §2

Mcl-1 1780 [7] = experiment: Mitochondrial profiling assay (JC-1), Mcl-1 1780; assay type: cell-based; settings: Mcl-1 1780, percent priming, JC-1, 100 μM peptide
Method: as §1, §2

DHL6 [8] = experiment: Mitochondrial profiling assay (JC-1), DHL6; assay type: cell-based; settings: DHL6, percent priming, JC-1, 100 μM peptide
Method: as §1, §2

CC1(C)CCC(c2ccc(Cl)cc2)=C(CN2CCN(c3ccc(C(=O)NS(=O)(=O)c4ccc(N[C@H](CCN5CCOCC5)CSc5ccccc5)c(S(=O)(=O)C(F)(F)F)c4)cc3)CC2)C1 [ABT-263, Navitoclax]
IC50 (Mcl-1 1780 [1]): 17000 nM | cell-killing activity (in words) (Mcl-1 1780 [1]; Mcl-1 primed cells (Mcl-1 1780)): ineffective | IC50 (DHL6 [2]): < 1000 nM | IC50 (NCI-H929 [3]): 4000 nM | cell-killing activity (in words) (Bcl-2 1863): effective | IC50 (DHL10): > 25000 nM | cell-killing activity (in words) (DHL10; DHL-10 cells deficient in the Bax-Bak proteins): not responsive | IC50 (LPN3 [4]): 4100 nM

COC1=CC(c2cc3ccccc3[nH]2)=N/C1=C\c1[nH]c(C)cc1C [Obatoclax]
IC50 (Mcl-1 1780 [1]): 1500 nM | IC50 (DHL6 [2]): 1200 nM | IC50 (NCI-H929 [3]): 1000 nM | IC50 (DHL10): 800 nM

CC(C)C[C@H](NC(=O)[C@H](Cc1ccccc1)NC(=O)c1cnccn1)B(O)O [Velcade, Bortezomib]
Δ M-Spike (multiple myeloma; Patient No. 3039T): 64.71 | Δ M-Spike (multiple myeloma; Patient No. 3098T): 62.50 | Δ M-Spike (multiple myeloma; Patient No. 3161T): 12.90 | Δ M-Spike (multiple myeloma; Patient No. 3187T): 65.22 | Δ M-Spike (multiple myeloma; Patient No. 3188T): 93.03 | Δ M-Spike (multiple myeloma; Patient No. 3191T): 57.69 | Δ M-Spike (multiple myeloma; Patient No. 3201T): 87.50 | Δ M-Spike (multiple myeloma; Patient No. 3213T): −10.00 | Δ M-Spike (multiple myeloma; Patient No. 3221T): 52.38 | M-Spike (multiple myeloma; TB# 3098T2, Jan. 27, 2011, patient undergoing Velcade based treatment): 0.8 g/dL | M-Spike (multiple myeloma; TB# 3098T3, May 5, 2011, patient undergoing Velcade based treatment): 0.3 g/dL | M-Spike (multiple myeloma; TB# 3098T, Oct. 13, 2010, patient undergoing Velcade based treatment): 1.7 g/dL | mean tumor burden reduction (in words) (OPM2/Luciferase cells): mean tumor burden reduction was observed

NLWAAQRYGRELRRMSDEFVDSFK [BAD BH3]
Kd (BCL-2): 11 nM | Kd (BCL-XL): < 10 nM

AELPPEFAAQLRKIGDKVYC [NOXA BH3, BH3 domain peptide]
Mcl-1 Priming State (NOXA Signal) (NCI-H929 [5]): 74 (HIGH) % | Mcl-1 Priming State (NOXA Signal) (LPN3 [6]): 58 (HIGH) % | Mcl-1 Priming State (NOXA Signal) (Mcl-1 1780 [7]): 75 (HIGH) % and 71 (HIGH) % | Mcl-1 Priming State (NOXA Signal) (DHL6 [8]): 18 (LOW) %
